From ChEMBL document CHEMBL1136988, “1-amino-4-benzylphthalazines as orally bioavailable smoothened antagonists with antitumor activity” (J Med Chem, 2009)

Experiments:
[1] = Antitumor activity against mouse Ptch+/- p53-/- medulloblastoma cells xenografted Harlan nu/nu mouse assessed as tumor regression at 40 mg/kg, po bid administered after 7 days tumor implantation measured after 12 days; format: functional, Medulloblastoma cell
[2] = Antitumor activity against mouse Ptch+/- p53-/- medulloblastoma cells xenografted Harlan nu/nu mouse assessed as tumor regression at 20 mg/kg, po bid administered after 7 days tumor implantation measured after 12 days; format: functional, Medulloblastoma cell
[3] = Clearance in nude mouse plasma at 1 mg/kg, iv after 24 hrs; format: ADME, organism-based; parameters: dose 1 mg/kg, route intravenous
[4] = Antitumor activity against mouse Ptch+/- p53-/- medulloblastoma cells xenografted Harlan nu/nu mouse at 10 mg/kg, po qd administered after 7 days tumor implantation measured after 12 days relative to control; format: functional, Medulloblastoma cell
Protein smoothened [5] = molecular target: T1, Protein smoothened (Mus musculus, UniProt P56726); test: Displacement of [3H]3-chloro-4,7-difluoro-N-(4-methoxy-3-(pyridin-4-yl)benzyl)-N-(4-(methylamino)cyclohexyl)benzo[b]thiophene-2-carboxamide from mouse Smoothened receptor expressed in CHO-K1 cells by membrane filter binding assay; format: cell-based
Mus musculus [6] = test: Toxicity in mouse Ptch+/- p53-/- medulloblastoma cells xenografted Harlan nu/nu mouse assessed as change in body weight at 5 to 40 mg/kg, po bid administered after 7 days tumor implantation measured after 12 days; format: organism-based; parameters: dose 5-40 mg/kg, route oral; details: in vivo, 288 h
Protein smoothened [7] = molecular target: T1, Protein smoothened; test: Inhibition of Smoothened receptor in mouse TM3 cells transfected with pTA-8xGli-Luc reporter gene assessed as inhibition of 1 nM 3-chloro-4,7-difluoro-N-(4-methoxy-3-(pyridin-4-yl)benzyl)-N-(4-(methylamino)cyclohexyl)benzo[b]thiophene-2-carboxamide-induced Hedgehog pathway activation by Gli shift assay; format: cell-based
Medulloblastoma cell [8] = test: Inhibition of Gli mRNA expression in mouse medulloblastoma cells after 1 to 24 hrs by RT-PCR; format: functional
[9] = Tmax in nude mouse brain at 5 mg/kg, po after 24 hrs; format: ADME, organism-based; parameters: dose 5 mg/kg, route oral
[10] = Antitumor activity against mouse Ptch+/- p53-/- medulloblastoma cells xenografted Harlan nu/nu mouse at 5 mg/kg, po qd administered after 7 days tumor implantation measured after 12 days relative to control; format: functional, Medulloblastoma cell
Mus musculus [11] = test: Toxicity in mouse Ptch+/- p53-/- medulloblastoma cells xenografted Harlan nu/nu mouse assessed as change in body weight at 5 to 40 mg/kg, po qd administered after 7 days tumor implantation measured after 12 days; format: organism-based; parameters: dose 5-40 mg/kg, route oral; details: in vivo, 288 h
[12] = Antitumor activity against mouse Ptch+/- p53-/- medulloblastoma cells xenografted Harlan nu/nu mouse at 10 mg/kg, po bid administered after 7 days tumor implantation measured after 12 days relative to control; format: functional, Medulloblastoma cell
[13] = Oral bioavailability in nude mouse plasma at 5 mg/kg after 24 hrs; format: ADME, organism-based
[14] = Tmax in nude mouse plasma at 5 mg/kg, po after 24 hrs; format: ADME, organism-based; parameters: dose 5 mg/kg, route oral
[15] = Antitumor activity against mouse Ptch+/- p53-/- medulloblastoma cells xenografted Harlan nu/nu mouse at 5 mg/kg, po bid administered after 7 days tumor implantation measured after 12 days relative to control; format: functional, Medulloblastoma cell
Medulloblastoma cell [16] = test: Inhibition of Gli mRNA expression in mouse medulloblastoma cells at 40 mg/kg, po by RT-PCR; format: functional, organism-based; parameters: dose 40 mg/kg; details: TDE = time-dependent effect
[17] = AUC (0 to infinity) in nude mouse plasma at 5 mg/kg, po after 24 hrs; format: ADME, organism-based; parameters: time infinity, dose 5 mg/kg, route oral
[18] = Volume of distribution at steady state in nude mouse plasma at 1 mg/kg, iv after 24 hrs; format: ADME, organism-based; parameters: dose 1 mg/kg, route intravenous; details: read-out: Vdss
[19] = Antitumor activity against mouse Ptch+/- p53-/- medulloblastoma cells xenografted Harlan nu/nu mouse at 40 mg/kg, po qd administered after 7 days tumor implantation measured after 12 days relative to control; format: functional, Medulloblastoma cell
[20] = Ratio of AUC (0 to infinity) in brain to AUC (0 to infinity) in plasma of nude mouse at 5 mg/kg, po after 24 hrs; format: ADME, organism-based; parameters: dose 5 mg/kg, route oral; details: read-out: Ratio AUC
Medulloblastoma cell [21] = test: Inhibition of Gli mRNA expression in mouse medulloblastoma cells at 5 mg/kg, po by RT-PCR; format: functional, organism-based; parameters: dose 5 mg/kg; details: TDE = time-dependent effect
[22] = Ratio of Cmax in brain to Cmax in plasma of nude mouse at 5 mg/kg, po after 24 hrs; format: ADME, organism-based; parameters: dose 5 mg/kg, route oral; details: read-out: Ratio_Cmax_brain/plasma
Mus musculus [23] = test: Hepatic blood flow in nude mouse at 1 mg/kg, iv; format: ADME, organism-based, Liver; parameters: dose 1 mg/kg, route intravenous; details: in vivo
[24] = Antitumor activity against mouse Ptch+/- p53-/- medulloblastoma cells xenografted Harlan nu/nu mouse at 20 mg/kg, po qd administered after 7 days tumor implantation measured after 12 days relative to control; format: functional, Medulloblastoma cell
[25] = AUC (0 to infinity) in nude mouse brain at 5 mg/kg, po after 24 hrs; format: ADME, organism-based; parameters: dose 5 mg/kg, route oral, time infinity
Mus musculus [26] = test: Toxicity in mouse Ptch+/- p53-/- medulloblastoma cells xenografted Harlan nu/nu mouse at 5 to 40 mg/kg, po bid administered after 7 days tumor implantation measured after 12 days; format: organism-based; parameters: dose 5-40 mg/kg, route oral; details: in vivo, 288 h
[27] = Cmax in nude mouse plasma at 5 mg/kg, po after 24 hrs; format: ADME, organism-based; parameters: dose 5 mg/kg, route oral
Mus musculus [28] = test: Total body water content in nude mouse at 1 mg/kg, iv; format: ADME, organism-based; parameters: dose 1 mg/kg, route intravenous; details: in vivo
Medulloblastoma cell [29] = test: Antitumor activity against mouse Ptch+/- p53-/- medulloblastoma cells xenografted po dosed Harlan nu/nu mouse assessed as tumor regression administered after 7 days tumor implantation measured after 12 days; format: functional, organism-based
Mus musculus [30] = test: Toxicity in mouse Ptch+/- p53-/- medulloblastoma cells xenografted Harlan nu/nu mouse at 5 to 40 mg/kg, po qd administered after 7 days tumor implantation measured after 12 days; format: organism-based; parameters: dose 5-40 mg/kg, route oral; details: in vivo, 288 h
Protein smoothened [31] = molecular target: T1, Protein smoothened; format: cell-based, TM3
Description: Inhibition of Smoothened receptor in mouse TM3 cells transfected with pTA-8xGli-Luc reporter gene assessed as inhibition of 25 nM 3-chloro-4,7-difluoro-N-(4-methoxy-3-(pyridin-4-yl)benzyl)-N-(4-(methylamino)cyclohexyl)benzo[b]thiophene-2-carboxamide-induced Hedgehog pathway activation by Gli shift assay

[32] = Cmax in nude mouse brain at 5 mg/kg, po after 24 hrs; format: ADME, organism-based; parameters: dose 5 mg/kg, route oral
Protein smoothened [33] = molecular target: Protein smoothened (Homo sapiens, UniProt Q99835); test: Displacement of [3H]3-chloro-4,7-difluoro-N-(4-methoxy-3-(pyridin-4-yl)benzyl)-N-(4-(methylamino)cyclohexyl)benzo[b]thiophene-2-carboxamide from human Smoothened receptor expressed in CHO-K1 cells by membrane filter binding assay; format: cell-based
[34] = Half life in nude mouse plasma at 1 mg/kg, iv after 24 hrs; format: ADME, organism-based; parameters: dose 1 mg/kg, route intravenous
[35] = AUC (0 to infinity) in nude mouse plasma at 1 mg/kg, iv after 24 hrs; format: ADME, organism-based; parameters: time infinity, dose 1 mg/kg, route intravenous

T1 sequence (P56726 whole entry): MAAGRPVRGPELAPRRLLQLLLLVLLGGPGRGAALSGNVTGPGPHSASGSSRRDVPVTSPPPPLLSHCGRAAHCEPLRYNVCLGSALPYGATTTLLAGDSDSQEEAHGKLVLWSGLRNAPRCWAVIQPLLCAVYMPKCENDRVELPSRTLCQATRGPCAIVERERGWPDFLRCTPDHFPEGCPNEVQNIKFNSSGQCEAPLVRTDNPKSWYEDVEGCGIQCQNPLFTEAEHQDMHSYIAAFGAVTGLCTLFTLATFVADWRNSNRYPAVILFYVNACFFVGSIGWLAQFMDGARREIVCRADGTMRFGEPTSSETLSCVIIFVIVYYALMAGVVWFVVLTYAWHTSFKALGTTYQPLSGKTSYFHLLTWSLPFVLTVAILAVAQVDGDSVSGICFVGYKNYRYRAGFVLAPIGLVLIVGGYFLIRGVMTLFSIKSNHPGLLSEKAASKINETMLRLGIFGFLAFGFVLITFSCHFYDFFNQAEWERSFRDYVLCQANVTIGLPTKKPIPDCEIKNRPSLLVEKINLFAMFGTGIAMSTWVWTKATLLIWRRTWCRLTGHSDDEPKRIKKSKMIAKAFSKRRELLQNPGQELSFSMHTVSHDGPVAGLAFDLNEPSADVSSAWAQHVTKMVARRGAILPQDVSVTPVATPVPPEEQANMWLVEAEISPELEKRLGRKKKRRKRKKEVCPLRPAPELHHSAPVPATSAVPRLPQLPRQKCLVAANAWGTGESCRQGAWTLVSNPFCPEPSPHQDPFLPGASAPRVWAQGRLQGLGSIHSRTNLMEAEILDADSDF
Chain of Protein smoothened (Homo sapiens, UniProt Q99835) (Q99835 whole entry): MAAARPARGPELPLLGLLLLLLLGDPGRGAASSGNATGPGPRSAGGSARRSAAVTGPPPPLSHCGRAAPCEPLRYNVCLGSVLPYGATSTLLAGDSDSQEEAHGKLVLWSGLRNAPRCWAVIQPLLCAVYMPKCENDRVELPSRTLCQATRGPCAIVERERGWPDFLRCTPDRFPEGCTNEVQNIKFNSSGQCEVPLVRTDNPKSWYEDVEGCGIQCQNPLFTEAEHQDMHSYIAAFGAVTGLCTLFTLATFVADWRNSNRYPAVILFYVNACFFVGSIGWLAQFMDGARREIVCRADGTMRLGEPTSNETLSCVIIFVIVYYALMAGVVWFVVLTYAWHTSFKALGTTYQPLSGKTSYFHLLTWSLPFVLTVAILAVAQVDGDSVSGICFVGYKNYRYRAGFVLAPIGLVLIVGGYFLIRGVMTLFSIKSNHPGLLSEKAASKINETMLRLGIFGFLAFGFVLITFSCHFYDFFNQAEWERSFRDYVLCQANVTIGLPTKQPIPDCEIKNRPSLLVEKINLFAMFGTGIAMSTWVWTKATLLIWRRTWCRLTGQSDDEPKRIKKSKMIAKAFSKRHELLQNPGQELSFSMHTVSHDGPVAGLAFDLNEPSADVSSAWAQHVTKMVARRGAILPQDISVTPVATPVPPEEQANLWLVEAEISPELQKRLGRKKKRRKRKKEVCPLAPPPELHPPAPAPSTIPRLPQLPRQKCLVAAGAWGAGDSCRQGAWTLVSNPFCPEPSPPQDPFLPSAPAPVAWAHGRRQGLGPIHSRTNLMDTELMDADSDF

CC(C)(O)c1ccc(N2CCN(c3nnc(Cc4ccccc4)c4ccccc34)CC2)nc1
T/C [1]: 71%
T/C [2]: 15%
clearance [3]: 5.24 mL/min/kg
T/C [4]: 77%
IC50 (Protein smoothened [5]): 5 nM
Activity (Mus musculus [6]): Non-toxic
IC50 (Protein smoothened [7]): 2.7 nM
Activity (Medulloblastoma cell [8]): Dose-dependent effect
Tmax [9]: 15 min
T/C [10]: 80%
Activity (Mus musculus [11]): Non-toxic
T/C [12]: 40%
bioavailability [13]: 73%
Tmax [14]: 15 min
T/C [15]: 69%
Activity (Medulloblastoma cell [16]): tde
AUC(0-inf) [17]: 26.5 µM·h
Vd [18]: 0.2 L/kg
T/C [19]: 19%
Kp at 24 h [20]: 0.33
Activity (Medulloblastoma cell [21]): tde
Kp at 24 h [22]: 0.15
QH (Mus musculus [23]): 90 mL/min/kg
T/C [24]: 45%
AUC(0-inf) [25]: 8.82 µM·h
Activity (Mus musculus [26]): Non-toxic
Cmax [27]: 15.7 µM
Activity (Mus musculus [28]): 0.7 L/kg
Activity (Medulloblastoma cell [29]): Dose-dependent effect
Activity (Mus musculus [30]): Non-toxic
IC50 (Protein smoothened [31]): 35 nM
Cmax [32]: 2.39 µM
IC50 (Protein smoothened [33]): 8 nM
half-life [34]: 31.8 min
AUC(0-inf) [35]: 7.23 µM·h
